In PubChem BioAssay (NCI):
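A five-concentration, 48-hour dose response in 96-well plates underlies each endpoint, interpolated linearly between surrounding concentrations. GI50 is the concentration that inhibits growth by half. Definition used: TGI = concentration required for complete inhibition of growth.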

Legend:
Assay in all cases: NCI tumour cell line growth inhibition, 48 h
COLO 205 colon = tested on: COLO 205 colon
HOP-92 NSCLC = tested on: HOP-92 NSCLC
EKVX NSCLC = tested on: EKVX NSCLC
T-47D breast = tested on: T-47D breast
KM12 colon = tested on: KM12 colon
DU-145 prostate = tested on: DU-145 prostate
PC-3 prostate = tested on: PC-3 prostate
MOLT-4 leukemia = tested on: MOLT-4 leukemia
OVCAR-4 ovarian = tested on: OVCAR-4 ovarian
HS 578T breast = tested on: HS 578T breast
SF-268 CNS = tested on: SF-268 CNS
SNB-75 CNS = tested on: SNB-75 CNS
SK-MEL-5 melanoma = tested on: SK-MEL-5 melanoma
OVCAR-5 ovarian = tested on: OVCAR-5 ovarian
LOX IMVI melanoma = tested on: LOX IMVI melanoma
TK-10 renal = tested on: TK-10 renal
OVCAR-8 ovarian = tested on: OVCAR-8 ovarian
SW-620 colon = tested on: SW-620 colon
786-0 renal = tested on: 786-0 renal
MDA-MB-231 breast = tested on: MDA-MB-231 breast
RXF 393 renal = tested on: RXF 393 renal
CAKI-1 renal = tested on: CAKI-1 renal
HCT-116 colon = tested on: HCT-116 colon
SF-539 CNS = tested on: SF-539 CNS
HOP-62 NSCLC = tested on: HOP-62 NSCLC
NCI-H23 lung = tested on: NCI-H23 lung
NCI/ADR-RES ovarian = tested on: NCI/ADR-RES ovarian
SR leukemia = tested on: SR leukemia
A549 NSCLC = tested on: A549 NSCLC
SF-295 CNS = tested on: SF-295 CNS
MDA-MB-435 = tested on: MDA-MB-435
SK-OV-3 ovarian = tested on: SK-OV-3 ovarian
U251 CNS = tested on: U251 CNS
HL-60(TB) leukemia = tested on: HL-60(TB) leukemia
SK-MEL-2 melanoma = tested on: SK-MEL-2 melanoma
NCI-H226 lung = tested on: NCI-H226 lung
OVCAR-3 ovarian = tested on: OVCAR-3 ovarian
RPMI-8226 leukemia = tested on: RPMI-8226 leukemia
SK-MEL-28 melanoma = tested on: SK-MEL-28 melanoma
SN12C renal = tested on: SN12C renal
UO-31 renal = tested on: UO-31 renal
HT29 colon = tested on: HT29 colon
NCI-H522 lung = tested on: NCI-H522 lung
ACHN renal = tested on: ACHN renal
CCRF-CEM leukemia = tested on: CCRF-CEM leukemia
SNB-19 CNS = tested on: SNB-19 CNS
M14 melanoma = tested on: M14 melanoma
BT-549 breast = tested on: BT-549 breast
NCI-H460 lung = tested on: NCI-H460 lung
A498 renal = tested on: A498 renal
HCT-15 colon = tested on: HCT-15 colon
HCC-2998 colon = tested on: HCC-2998 colon

Q: What does the source list for `N#Cc1cnc2cc(OC[C@@H](O)CO)c(NC(=O)C3CCCC3)cc2c1Nc1ccc(OCc2cccc(F)c2)c(Cl)c1`?
A: GI50 (COLO 205 colon): 4280 nM; TGI (COLO 205 colon): 26000 nM; GI50 (HOP-92 NSCLC): 990 nM; TGI (HOP-92 NSCLC): 2480 nM; GI50 (EKVX NSCLC): 1330 nM; TGI (EKVX NSCLC): 6740 nM; GI50 (T-47D breast): 1130 nM; TGI (T-47D breast): 4310 nM; GI50 (KM12 colon): 3840 nM; TGI (KM12 colon): 14200 nM; GI50 (DU-145 prostate): 712 nM; TGI (DU-145 prostate): 1420 nM; GI50 (PC-3 prostate): 947 nM; TGI (PC-3 prostate): 1920 nM; GI50 (MOLT-4 leukemia): 1490 nM; TGI (MOLT-4 leukemia): 4690 nM; GI50 (OVCAR-4 ovarian): 514 nM; TGI (OVCAR-4 ovarian): 1280 nM; GI50 (HS 578T breast): 265 nM; TGI (HS 578T breast): 1430 nM; GI50 (SF-268 CNS): 1370 nM; TGI (SF-268 CNS): 5980 nM; GI50 (SNB-75 CNS): 2190 nM; TGI (SNB-75 CNS): > 50000 nM; GI50 (SK-MEL-5 melanoma): 7720 nM; TGI (SK-MEL-5 melanoma): 17500 nM; GI50 (OVCAR-5 ovarian): 7690 nM; TGI (OVCAR-5 ovarian): 17200 nM; GI50 (LOX IMVI melanoma): 1010 nM; TGI (LOX IMVI melanoma): 2280 nM; GI50 (TK-10 renal): 1990 nM; TGI (TK-10 renal): 7210 nM; GI50 (OVCAR-8 ovarian): 1160 nM; TGI (OVCAR-8 ovarian): 3010 nM; GI50 (SW-620 colon): 1530 nM; TGI (SW-620 colon): 6780 nM; GI50 (786-0 renal): 4510 nM; TGI (786-0 renal): 11700 nM; GI50 (MDA-MB-231 breast): 740 nM; TGI (MDA-MB-231 breast): 1820 nM; GI50 (RXF 393 renal): 1290 nM; TGI (RXF 393 renal): 3410 nM; GI50 (CAKI-1 renal): 5610 nM; TGI (CAKI-1 renal): > 50000 nM; GI50 (HCT-116 colon): 400 nM; TGI (HCT-116 colon): 1100 nM; GI50 (SF-539 CNS): 1150 nM; TGI (SF-539 CNS): 2930 nM; GI50 (HOP-62 NSCLC): 1030 nM; TGI (HOP-62 NSCLC): 2620 nM; GI50 (NCI-H23 lung): 1870 nM; TGI (NCI-H23 lung): 11900 nM; GI50 (NCI/ADR-RES ovarian): 21700 nM; TGI (NCI/ADR-RES ovarian): > 50000 nM; GI50 (SR leukemia): 1240 nM; TGI (SR leukemia): > 50000 nM; GI50 (A549 NSCLC): 6740 nM; TGI (A549 NSCLC): 14900 nM; GI50 (SF-295 CNS): 3780 nM; TGI (SF-295 CNS): 12200 nM; GI50 (MDA-MB-435): 1820 nM; TGI (MDA-MB-435): 7710 nM; GI50 (SK-OV-3 ovarian): 3230 nM; TGI (SK-OV-3 ovarian): 11500 nM; GI50 (U251 CNS): 6790 nM; TGI (U251 CNS): 15600 nM; GI50 (HL-60(TB) leukemia): 789 nM; TGI (HL-60(TB) leukemia): 2760 nM; GI50 (SK-MEL-2 melanoma): 915 nM; TGI (SK-MEL-2 melanoma): 1860 nM; GI50 (NCI-H226 lung): 3860 nM; TGI (NCI-H226 lung): 11400 nM; GI50 (OVCAR-3 ovarian): 874 nM; TGI (OVCAR-3 ovarian): 1820 nM; GI50 (RPMI-8226 leukemia): 728 nM; TGI (RPMI-8226 leukemia): 3120 nM; GI50 (SK-MEL-28 melanoma): 669 nM; TGI (SK-MEL-28 melanoma): 1420 nM; GI50 (SN12C renal): 1880 nM; TGI (SN12C renal): 28600 nM; GI50 (UO-31 renal): 2210 nM; TGI (UO-31 renal): > 50000 nM; GI50 (HT29 colon): 1390 nM; TGI (HT29 colon): 3840 nM; GI50 (NCI-H522 lung): 568 nM; TGI (NCI-H522 lung): 1340 nM; GI50 (ACHN renal): 3010 nM; TGI (ACHN renal): > 50000 nM; GI50 (CCRF-CEM leukemia): 480 nM; TGI (CCRF-CEM leukemia): 2190 nM; GI50 (SNB-19 CNS): 3690 nM; TGI (SNB-19 CNS): > 50000 nM; GI50 (M14 melanoma): 765 nM; TGI (M14 melanoma): 1610 nM; GI50 (BT-549 breast): 1090 nM; TGI (BT-549 breast): 2890 nM; GI50 (NCI-H460 lung): 1050 nM; TGI (NCI-H460 lung): 4730 nM; GI50 (A498 renal): 2780 nM; TGI (A498 renal): 13400 nM; GI50 (HCT-15 colon): 2450 nM; TGI (HCT-15 colon): > 50000 nM; GI50 (HCC-2998 colon): 1100 nM; TGI (HCC-2998 colon): 3380 nM
